Data taken from US20240018132A1, “5-HYDROXY-1,4-NAPHTHALENEDIONE FOR USE IN THE TREATMENT OF CANCER” (GODAVARI BIOREFINERIES LIMITED, priority 2020, published 2024).

Legend:
MDAMB231 [1] = test: Soft agar colony-formation assay, breast cancer; type: cell-based; conditions: for anticancer activity in comparison with cisplatin, soft agar, breast cancer cell line: FIG. 51, MDAMB231; for IC50: Homo sapiens, MDA-MB-231, 168 h, Soft Agar Assay, 1 week, Alamar Blue
Method: (§1) The Soft Agar Colony-formation Assay is an anchorage-independent growth assay in soft agar, which is one of the most stringent assays for detecting malignant transformation of cells. For this assay, malignant cells are cultured with appropriate controls in soft agar medium for 1-2 weeks. Following this incubation period, formed colonies can either be analyzed morphologically using cell stain and quantifying the number of colonies formed.
(§2) Briefly, for Soft Agar Assay a mixture of 50 ul of 2× medium (taken appropriately as per cell line) and 50 ul of 1.2% Bacto Agar were plated on to each well of 96 well micro titer assay plate. 10 ul of cells (of specific plating efficiency pre standardized for respective cell line) were mixed with 20 ul of 2× medium and 30 ul of 0.8% of Bacto Agar and 1.6 ul of drug (of appropriate concentration) in a vial and transferred to the solidified pre layers of the assay plates. The cells were then allowed to grow and form colonies at 37° C. and 5% CO2 for 1 week. An intermittent feeding with 50 ul of appropriate 2× medium was performed after 3 days of experimental set up. 16 ul of Alamar Blue (1.5 mg/ml) was then added to all the wells to quantify the developed colonies. The plates were incubated for 24 hrs at 37° C. Absorbance was then measured at 630 nm. XY graph of log Percent viability was then plotted against log drug concentration.
(§3) Following plating efficiencies were standardized for Soft Agar Assay: […]

PC3 [2] = test: In vitro antiproliferative assay (MTT assay), prostate cancer cell line; type: cell-based; conditions: Homo sapiens, PC-3, 48 h, MTT assay, prostate cancer PC3, 48 hrs drug incubation
Method: (§4) MTT assay is a simple and sensitive assay where, metabolic reducing activity of the cells is measured. The increase of this activity in time is taken as a parameter of cell growth. If treatment with a drug impairs this increase, the action is a consequence of growth inhibition, cell killing or both. […] All cell lines were cultured in a 37° C. incubator with a 5% CO2 environment. Compounds were dissolved in DMSO with a concentration of 0.1M (stock solution). Cells were seeded into 96-well plates at suitable plating efficiency.
(§5) Following plating efficiencies were standardized for MTT assay:
(§6) In the MTT procedure, the cells were plated in 96 well plates as per predetermined plating efficiency (Table1). The plates were then incubated for 24 hrs in 5% CO2 atmosphere at 37° C. Appropriate concentrations of the drugs were then added to the plate and further incubation was carried out for 48 hrs (in 5% CO2 atmosphere at 37° C.). The assay plate was then centrifuged twice at 3000 rpm for 3 mins and supernatant was then discarded. 100 ul of MTT solution (0.5 mg/ml) was then added to each well of the plate and it was further incubated for 4 hrs (in 5% CO2 atmosphere at 37° C.) Following 4 hr incubation, the plate was then centrifuged twice, and supernatant was aspirated off very carefully. 200 ul of DMSO was then added to each well to solubilize. MTT crystals and mixed well by shaking the plate. XY graph of log percent viability was then plotted against log drug concentration.

Human lymphocytes = test: Lymphocyte assay (MTT on normal cells); type: cell-based; conditions: Lymphocyte; human peripheral blood lymphocytes, MTT procedure
Method: Human lymphocytes were isolated from the peripheral blood. A pure population of lymphocytes was obtained based on differential centrifugation, in which diluted defibrinated blood was layered on a solution of sodium diatrizoate and polysucrose (HiSep LSM 1077) and centrifuged at low speeds for 30 mins.
Procedure: The separation of lymphocytes from fresh defibrinated blood was performed by the procedure described below: • 1. Diluted defibrinated fresh blood was overlaid gradually on (HiSeP LSM1077) and centrifuged at low speed for 30 mins. • 2. The lymphocyte layer (the buffy coat) was carefully removed in a new collection tube. • 3. The buffy coat was given another wash, by the diluent buffer Dulbecco's phosphate buffered saline (D.P.B.S) • 4. The supernatant was discarded and the pellet was resuspended in D.P.B.S. • 5. The viability of cells was checked by Haemocytometer. • 6. Cells with purity and viability of more than 95% were taken for the experiment. • 7. Purified lymphocytes were diluted at a concentration of 0.7 million/ml with sterile D.P.B.S and MTT procedure was performed exactly as described earlier.

PC3 [3] = test: Soft agar colony-formation assay, prostate cancer; type: cell-based; conditions: for anticancer activity in comparison with cisplatin, soft agar, prostate cancer cell line: FIG. 52, PC3; for IC50: Homo sapiens, PC-3, 168 h, Soft Agar Assay, 1 week, Alamar Blue
Method: as §1, §2, §3

MDAMB231 [4] = test: In vitro sphere-forming assay (cancer stem cells), Mammosphere media; conditions: for viability at 0.0025 µM / viability at 0.025 µM / viability at 0.25 µM / viability at 2.5 µM / viability at 25 µM: Homo sapiens, MDA-MB-231, read-out: % Viability of spheres (MDAMB231); for 3D sphere count of MDAMB231: Mammosphere media, 2000 cells/well, n = 6 ± S.D
MDAMB231 [5] = test: In vitro antiproliferative assay (MTT assay), breast cancer cell line; type: cell-based; conditions: Homo sapiens, MDA-MB-231, 48 h, MTT assay, breast cancer MDAMB231, 48 hrs drug incubation
Method: as §4, §5, §6

PC3 [6] = test: In vitro sphere-forming assay (cancer stem cells), Prostosphere media; conditions: for viability at 0.0025 µM / viability at 0.025 µM / viability at 0.25 µM / viability at 2.5 µM / viability at 25 µM: Homo sapiens, PC-3, read-out: % Viability of spheres (PC3); for 3D sphere count of PC3: Prostosphere media, 2000 cells/well, n = 6 ± S.D

Which “anticancer activity in comparison with cisplatin, soft agar, breast cancer cell line” value (MDAMB231 [1]) does the source give for `O=C1C=C(OCCCCCCN2CCOCC2)C(=O)c2ccccc21` [Formula 68] here?
The value was “higher anticancer activity in comparison with cisplatin”.

What about the IC50 (MDAMB231 [1]) of the same compound?
The IC50 was 2.37 µM.

What about the IC50 (PC3 [2]) of the same compound?
Its IC50 is 4.73 µM.

What about the IC50 (Human lymphocytes) of the same compound?
The IC50 was 5.58 µM.

What about the “anticancer activity in comparison with cisplatin, soft agar, prostate cancer cell line” value (PC3 [3]) of the same compound?
Its value is “higher anticancer activity in comparison with cisplatin”.

What about the IC50 (PC3 [3]) of the same compound?
Its IC50 is 2.53 µM.

And the viability at 0.0025 µM (MDAMB231 [4])?
The viability at 0.0025 µM was 62%.

And the viability at 0.025 µM (MDAMB231 [4])?
The viability at 0.025 µM was 53%.

What about the viability at 0.25 µM (MDAMB231 [4]) of the same compound?
The viability at 0.25 µM was 47%.

What about the viability at 2.5 µM (MDAMB231 [4]) of the same compound?
Its viability at 2.5 µM is 39%.

What about the viability at 25 µM (MDAMB231 [4]) of the same compound?
Its viability at 25 µM is 32%.

What about the “3D sphere count of MDAMB231” value (MDAMB231 [4]; drug 0.0025 uM) of the same compound?
Its value is 54(±2).

What about the “3D sphere count of MDAMB231” value (MDAMB231 [4]; drug 0.025 uM) of the same compound?
Its value is 47(±2).

And the “3D sphere count of MDAMB231” value (MDAMB231 [4]; drug 0.25 uM)?
The value was 39(±3).

And the “3D sphere count of MDAMB231” value (MDAMB231 [4]; drug 2.5 uM)?
The value was 33(±2).

And the “3D sphere count of MDAMB231” value (MDAMB231 [4]; drug 25 uM)?
The value was 27(±2).

What about the IC50 (MDAMB231 [5]) of the same compound?
The IC50 was 3.18 µM.

And the viability at 0.0025 µM (PC3 [6])?
The viability at 0.0025 µM was 62%.

What about the viability at 0.025 µM (PC3 [6]) of the same compound?
The viability at 0.025 µM was 55%.

And the viability at 0.25 µM (PC3 [6])?
Its viability at 0.25 µM is 41%.

What about the viability at 2.5 µM (PC3 [6]) of the same compound?
The viability at 2.5 µM was 31%.

And the viability at 25 µM (PC3 [6])?
Its viability at 25 µM is 24%.

And the “3D sphere count of PC3” value (PC3 [6]; drug 0.0025 uM)?
The value was 54(±4).

And the “3D sphere count of PC3” value (PC3 [6]; drug 0.025 uM)?
Its value is 48(±3).

What about the “3D sphere count of PC3” value (PC3 [6]; drug 0.25 uM) of the same compound?
The value was 36(±3).

What about the “3D sphere count of PC3” value (PC3 [6]; drug 2.5 uM) of the same compound?
Its value is 27(±2).

And the “3D sphere count of PC3” value (PC3 [6]; drug 25 uM)?
The value was 21(±2).

What does the source list for `O=C1C(Nc2ccc3c(c2)OCO3)=CC(=O)c2c(OCC(=O)N3CCOCC3)cccc21` [Formula 71]?
anticancer activity in comparison with cisplatin, soft agar, breast cancer cell line (MDAMB231 [1]): higher anticancer activity in comparison with cisplatin; IC50 (MDAMB231 [1]): 1.79 µM; IC50 (PC3 [2]): 3.55 µM; IC50 (Human lymphocytes): 25.2 µM; anticancer activity in comparison with cisplatin, soft agar, prostate cancer cell line (PC3 [3]): higher anticancer activity in comparison with cisplatin; IC50 (PC3 [3]): 3.31 µM; viability at 0.0025 µM (MDAMB231 [4]): 79%; viability at 0.025 µM (MDAMB231 [4]): 64%; viability at 0.25 µM (MDAMB231 [4]): 53%; viability at 2.5 µM (MDAMB231 [4]): 34%; viability at 25 µM (MDAMB231 [4]): 13%; 3D sphere count of MDAMB231 (MDAMB231 [4]; drug 0.0025 uM): 65(±5); 3D sphere count of MDAMB231 (MDAMB231 [4]; drug 0.025 uM): 53(±4); 3D sphere count of MDAMB231 (MDAMB231 [4]; drug 0.25 uM): 44(±4); 3D sphere count of MDAMB231 (MDAMB231 [4]; drug 2.5 uM): 28(±3); 3D sphere count of MDAMB231 (MDAMB231 [4]; drug 25 uM): 11(±2); IC50 (MDAMB231 [5]): 1.35 µM; viability at 0.0025 µM (PC3 [6]): 95%; viability at 0.025 µM (PC3 [6]): 65%; viability at 0.25 µM (PC3 [6]): 52%; viability at 2.5 µM (PC3 [6]): 37%; viability at 25 µM (PC3 [6]): 20%; 3D sphere count of PC3 (PC3 [6]; drug 0.0025 uM): 65(±5); 3D sphere count of PC3 (PC3 [6]; drug 0.025 uM): 53(±4); 3D sphere count of PC3 (PC3 [6]; drug 0.25 uM): 44(±4); 3D sphere count of PC3 (PC3 [6]; drug 2.5 uM): 28(±3); 3D sphere count of PC3 (PC3 [6]; drug 25 uM): 11(±2)

For `CCN(CC)CCNC(=O)COc1cccc2c1C(=O)C=C(Nc1ccc(OC)cc1)C2=O` [Formula 72], which “anticancer activity in comparison with cisplatin, soft agar, breast cancer cell line” value (MDAMB231 [1]) is on record?
The value was “higher anticancer activity in comparison with cisplatin”.

What about the IC50 (MDAMB231 [1]) of the same compound?
Its IC50 is 3.72 µM.

And the IC50 (PC3 [2])?
The IC50 was 0.743 µM.

What about the IC50 (Human lymphocytes) of the same compound?
Its IC50 is 33 µM.

What about the “anticancer activity in comparison with cisplatin, soft agar, prostate cancer cell line” value (PC3 [3]) of the same compound?
The value was “higher anticancer activity in comparison with cisplatin”.

And the IC50 (PC3 [3])?
The IC50 was 0.6 µM.

And the viability at 0.0025 µM (MDAMB231 [4])?
The viability at 0.0025 µM was 84%.

And the viability at 0.025 µM (MDAMB231 [4])?
Its viability at 0.025 µM is 67%.

What about the viability at 0.25 µM (MDAMB231 [4]) of the same compound?
Its viability at 0.25 µM is 48%.

And the viability at 2.5 µM (MDAMB231 [4])?
Its viability at 2.5 µM is 33%.

And the viability at 25 µM (MDAMB231 [4])?
Its viability at 25 µM is 19%.

What about the “3D sphere count of MDAMB231” value (MDAMB231 [4]; drug 0.0025 uM) of the same compound?
Its value is 60(±3).

And the “3D sphere count of MDAMB231” value (MDAMB231 [4]; drug 0.025 uM)?
Its value is 48(±3).

What about the “3D sphere count of MDAMB231” value (MDAMB231 [4]; drug 0.25 uM) of the same compound?
The value was 34(±3).

And the “3D sphere count of MDAMB231” value (MDAMB231 [4]; drug 2.5 uM)?
Its value is 24(±2).

What about the “3D sphere count of MDAMB231” value (MDAMB231 [4]; drug 25 uM) of the same compound?
The value was 14(±3).

What about the IC50 (MDAMB231 [5]) of the same compound?
Its IC50 is 1.01 µM.

And the viability at 0.0025 µM (PC3 [6])?
Its viability at 0.0025 µM is 81%.

What about the viability at 0.025 µM (PC3 [6]) of the same compound?
The viability at 0.025 µM was 63%.

And the viability at 0.25 µM (PC3 [6])?
Its viability at 0.25 µM is 46%.

What about the viability at 2.5 µM (PC3 [6]) of the same compound?
Its viability at 2.5 µM is 36%.

What about the viability at 25 µM (PC3 [6]) of the same compound?
The viability at 25 µM was 16%.

And the “3D sphere count of PC3” value (PC3 [6]; drug 0.0025 uM)?
The value was 65(±3).

And the “3D sphere count of PC3” value (PC3 [6]; drug 0.025 uM)?
The value was 51(±3).

What about the “3D sphere count of PC3” value (PC3 [6]; drug 0.25 uM) of the same compound?
The value was 37(±3).

And the “3D sphere count of PC3” value (PC3 [6]; drug 2.5 uM)?
Its value is 29(±2).

What about the “3D sphere count of PC3” value (PC3 [6]; drug 25 uM) of the same compound?
Its value is 13(±3).
